# Source: patent US11564923B2, “Compounds and pharmaceutical compositions thereof for the treatment of inflammatory disorders” (Galapagos NV, priority 2017, dated 2023)
# Counter-ions that a name gives are not always drawn. Like-named read-outs stand apart in the source and are kept apart here.
# Legend:
# [1] = tested on: IFNα activation of STAT1 in PBMC; assay: IFNα activation of STAT1 in PBMC; assay type: cell-based; details: Homo sapiens
# Method in brief: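 Human PBMC, with red cells lysed by NH4Cl, were pre-treated with compound for 30 min at 37 °C and 5% CO2. They were then stimulated for 30 min with recombinant human IFNα at 5 ng/mL final.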
# [2] = tested on: IL-12 activation of STAT4 in NK-92 cells; assay: IL-12 activation of STAT4 in NK-92 cells using MSD as readout; assay type: cell-based; details: Homo sapiens
# Protocol: IL-2 is added freshly to the medium with each medium refreshment step. Cells are cultured in a humidified incubator at 37° C. 5% CO2.
# NK-92 cells are pre-incubated with test compounds or vehicle for 30 min at 37° C. 5% CO2. […] NK-92 cells are triggered with rhIL-12 for 45 min at 37° C. 5% CO2.
# After 45 min of cytokine stimulation the cells are lysed by addition of 50 μL ice-cold lysis buffer (supplemented with the MSD kit). Plates are frozen at −80° C. for minimal 1 hour to lyse the cells completely. After thawing the levels of phospho-STAT4 are quantified using the Phospho-STAT4 (Tyr693) kit (MSD, Catalogue number K150PAD-2) according to the manufacturer's instructions. Electroluminescent signal is measured on the MSD reader.
# The percentage inhibition is calculated as: […]
# RLU (trigger/veh): Relative lumescent signal determined in presence of vehicle and trigger
# RLU (test compound): Relative luminescent signal determined in presence of test compounds)
# PIN values are plotted for compounds tested in dose-response and IC50 values are derived using LIMS Software applying non-linear regression (sigmoidal) curve fitting. The data are expressed as the average IC50 from different experiments.
# [3] = tested on: IL-12 activation of STAT4 in NK-92 cells; assay: IL-12 activation of STAT4 in NK-92 cells using AphaLISA SureFire technology; assay type: cell-based; details: Homo sapiens
# Method in brief: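 NK-92 cells, starved of rhIL-2 overnight, were stimulated with rhIL-12 for 30 min at 37 °C with test compounds, then lysed. Phospho-STAT4 (Tyr693) was read by AlphaLISA SureFire. Percent inhibition versus the vehicle-plus-trigger signal was fitted by sigmoidal nonlinear regression to give IC50, averaged over experiments.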
# [4] = biological target: T1, Recombinant human JAK1 (catalytic domain, amino acids 866-1154) (Homo sapiens, UniProt P23458); assay: JAK1 inhibition assay; assay type: biochemical; details: read-out: JAK1 potency IC50
# T1 construct: catalytic domain, amino acids 866-1154
# T1 sequence (P23458 866-1154): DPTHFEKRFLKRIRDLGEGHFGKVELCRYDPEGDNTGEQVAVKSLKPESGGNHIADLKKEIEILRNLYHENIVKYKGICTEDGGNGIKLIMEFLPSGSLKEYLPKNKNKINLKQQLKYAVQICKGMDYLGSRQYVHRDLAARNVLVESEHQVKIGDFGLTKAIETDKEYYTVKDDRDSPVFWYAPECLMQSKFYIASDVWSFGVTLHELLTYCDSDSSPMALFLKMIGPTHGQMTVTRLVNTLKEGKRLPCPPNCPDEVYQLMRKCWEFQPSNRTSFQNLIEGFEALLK
# [5] = biological target: T2, Recombinant human TYK2 catalytic domain (amino acids 871-1187) (Homo sapiens, UniProt P29597); assay: TYK2 radioactive assay polyGT substrate; assay type: biochemical; note: 0.1 µM ATP
# T2 construct: catalytic domain (amino acids 871-1187)
# T2 sequence (P29597 871-1187): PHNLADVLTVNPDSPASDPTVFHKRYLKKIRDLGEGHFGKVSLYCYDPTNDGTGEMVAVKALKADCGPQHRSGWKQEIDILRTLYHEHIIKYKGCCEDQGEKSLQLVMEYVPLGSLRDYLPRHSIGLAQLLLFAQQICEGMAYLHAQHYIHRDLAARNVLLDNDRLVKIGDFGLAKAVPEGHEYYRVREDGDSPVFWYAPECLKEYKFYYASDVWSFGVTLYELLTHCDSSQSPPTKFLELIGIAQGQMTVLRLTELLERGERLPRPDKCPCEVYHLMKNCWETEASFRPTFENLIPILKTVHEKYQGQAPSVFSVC
# Method in brief: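 Reaction at 30° C. for 120 min, ended with 150 mM phosphoric acid, washed, counted; percent inhibition scaled between vehicle and 10 μM staurosporine cpm.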
# [6] = biological target: Recombinant human JAK3 catalytic domain (amino acids 781-1124) (Homo sapiens, UniProt P52333); assay: JAK3 inhibition assay; assay type: biochemical
# Chain of Recombinant human JAK3 catalytic domain (amino acids 781-1124) (P52333 781-1124): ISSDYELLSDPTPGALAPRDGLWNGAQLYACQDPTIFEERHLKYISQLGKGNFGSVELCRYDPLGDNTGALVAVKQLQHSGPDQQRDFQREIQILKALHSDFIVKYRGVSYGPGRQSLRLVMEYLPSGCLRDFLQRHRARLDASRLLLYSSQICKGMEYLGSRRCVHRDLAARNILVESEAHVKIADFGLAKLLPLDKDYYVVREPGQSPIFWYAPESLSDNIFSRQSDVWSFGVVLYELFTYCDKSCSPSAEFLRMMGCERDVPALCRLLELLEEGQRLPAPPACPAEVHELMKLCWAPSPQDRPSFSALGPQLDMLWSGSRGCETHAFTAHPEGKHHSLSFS
# Method in brief: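 Radiometric kinase reaction run 45 min at 30° C., stopped with phosphoric acid; activity as vehicle cpm minus 10 μM staurosporine cpm.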
# [7] = biological target: T3, Recombinant human JAK2 (catalytic domain, amino acids 808-1132) (Homo sapiens, UniProt O60674); assay: JAK2 inhibition assay; assay type: biochemical; details: read-out: JAK2 potency IC50; note: 0.7 µM ATP
# T3 construct: catalytic domain, amino acids 808-1132
# T3 sequence (O60674 808-1132): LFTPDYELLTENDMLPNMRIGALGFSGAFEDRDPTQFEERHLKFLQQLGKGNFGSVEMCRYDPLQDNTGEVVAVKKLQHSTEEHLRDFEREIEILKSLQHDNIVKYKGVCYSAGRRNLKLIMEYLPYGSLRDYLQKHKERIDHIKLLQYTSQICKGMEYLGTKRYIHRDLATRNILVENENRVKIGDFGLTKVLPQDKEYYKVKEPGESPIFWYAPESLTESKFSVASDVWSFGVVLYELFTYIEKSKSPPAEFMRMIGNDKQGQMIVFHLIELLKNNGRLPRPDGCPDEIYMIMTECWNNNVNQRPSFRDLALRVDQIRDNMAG
# [8] = NK92, NK-92 cells, rhIL-12 25 ng/mL, MSD readout, read-out: IL12 pSTAT4 IC50
# [9] = IFNα activation of STAT1 in PBMC, average IC50, read-out: IFNα signaling inhibitory potency IC50
# [10] = NK92, IL-12 activation of STAT4 in NK-92 cells, AlphaLISA SureFire, average IC50, read-out: IL12 pSTAT4 IC50
SMILES,IC50 [4],"IC50 [2, 8]",IC50 [5],IC50 [6],IC50 [7],"IC50 [3, 10]","IC50 ([1]; PBMC, read-out: IFNα signaling inhibitory potency IC50 (nM))","IC50 ([2]; NK92, read-out: IL12 pSTAT4 IC50)","IC50 ([3]; NK92, read-out: IL12 pSTAT4 IC50 (nM))","IC50 [1, 9]"
"Cc1cc(S(C)(=O)=O)cc(F)c1Oc1cc(Nc2cc(N)ncn2)c2ncn(C)c2n1 [Compound 2, N-[5-(2-Fluoro-4-methanesulfonyl-6-methyl-phenoxy)-3-methyl-3H-imidazo[4,5-b]pyridin-7-yl]-pyrimidine-4,6-diamine]",,,,,,,87 nM,259 nM,73.5 nM,
"CN(c1cc(Nc2cc(N)ncn2)c2ncn(C)c2n1)C1CCOCC1(C)C (centres unmarked) [Compound 11, N7-(6-Amino-pyrimidin-4-yl)-N5-(3,3-dimethyl-tetrahydro-pyran-4-yl)-3,N5-dimethyl-3H-imidazo[4,5-b]pyridine-5,7-diamine]",27.2 nM,377 nM,1.81 nM,143 nM,4.75 nM,,,,,
"C[C@H](N(C)c1cc(Nc2cc(N)ncn2)c2ncn(C)c2n1)C(C)(C)C [Compound 12, N7-(6-aminopyrimidin-4-yl)-N5,3-dimethyl-N5-[(1S)-1,2,2-trimethylpropyl]imidazo[4,5-b]pyridine-5,7-diamine]",26.9 nM,540 nM,1.42 nM,36.7 nM,3.04 nM,,,,,25 nM
"CN(c1cc(Nc2cc(N)ncn2)c2ncn(C)c2n1)c1c(F)cc(C#N)cc1C1CC1 [Compound 14, 4-{[7-(6-Amino-pyrimidin-4-ylamino)-3-methyl-3H-imidazo[4,5-b]pyridin-5-yl]-methyl-amino}-3-cyclopropyl-5-fluoro-benzonitrile]",91.4 nM,1500 nM,3.83 nM,279 nM,17 nM,,,,,
"C[C@H]1COCC[C@@H]1N(C)c1cc(Nc2cc(N)ncn2)c2ncn(C)c2n1 [Compound 17, N7-(6-Amino-pyrimidin-4-yl)-3,N5-dimethyl-N5-((3R,4S)-3-methyl-tetrahydro-pyran-4-yl)-3H-imidazo[4,5-b]pyridine-5,7-diamine]",64.6 nM,905 nM,10.2 nM,237 nM,14.6 nM,,,,,
"CN(c1cc(Nc2cc(N)ncn2)c2ncn(C)c2n1)C12CC(C1)C2 [Compound 18, N7-(6-Amino-pyrimidin-4-yl)-N5-bicyclo[1.1.1]pent-1-yl-3,N5-dimethyl-3H-imidazo[4,5-b]pyridine-5,7-diamine]",294 nM,4680 nM,30.5 nM,187 nM,31.5 nM,,,,,
"CC(Oc1cc(Nc2cc(N)ncn2)c2ncn(C)c2n1)C1CC1 (centres unmarked) [Compound 72, N4-[5-(1-cyclopropylethoxy)-3-methyl-imidazo[4,5-b]pyridin-7-yl]pyrimidine-4,6-diamine]",,27.7 nM,1.41 nM,,,57.2 nM,,,,124 nM
"CCNC(=O)c1ccc(Nc2cc(NC(C3CC3)C(F)(F)F)nc3c2ncn3C)cn1 (centres unmarked) [Compound 91, 5-[[5-[(1-cyclopropyl-2,2,2-trifluoro-ethyl)amino]-3-methyl-imidazo[4,5-b]pyridin-7-yl]amino]-N-ethyl-pyridine-2-carboxamide]",157 nM,3150 nM,24.1 nM,208 nM,42 nM,,,,,

# Continued, in another order:
IC50 [4],"IC50 [2, 8]",IC50 [5],IC50 [6],IC50 [7],"IC50 [3, 10]",SMILES,"IC50 ([1]; PBMC, read-out: IFNα signaling inhibitory potency IC50 (nM))","IC50 ([2]; NK92, read-out: IL12 pSTAT4 IC50)","IC50 ([3]; NK92, read-out: IL12 pSTAT4 IC50 (nM))","IC50 [1, 9]"
234 nM,248 nM,18.3 nM,2930 nM,66.7 nM,,"CCNC(=O)c1ccc(Nc2cc(Oc3cnc(C#N)cc3C)nc3c2ncn3C)nn1 [Compound 23, 6-[5-(6-Cyano-4-methyl-pyridin-3-yloxy)-3-methyl-3H-imidazo[4,5-b]pyridin-7-ylamino]-pyridazine-3-carboxylic acid ethylamide]",,,,160 nM
,3370 nM,9.01 nM,,,,"Cc1cc(C#N)ncc1Oc1cc(Nc2ccc(C(=O)NCC(C)O)cn2)c2ncn(C)c2n1 (centres unmarked) [Compound 24, 6-[5-(6-Cyano-4-methyl-pyridin-3-yloxy)-3-methyl-3H-imidazo[4,5-b]pyridin-7-ylamino]-N-(2-hydroxy-propyl)-nicotinamide]",,,,151 nM
243 nM,1120 nM,19.2 nM,2300 nM,78.3 nM,,"Cc1cc(C#N)ncc1Oc1cc(Nc2ccc(C(=O)NCC(C)O)nn2)c2ncn(C)c2n1 (centres unmarked) [Compound 25, 6-[5-(6-Cyano-4-methyl-pyridin-3-yloxy)-3-methyl-3H-imidazo[4,5-b]pyridin-7-ylamino]-pyridazine-3-carboxylic acid (2-hydroxy-propyl)-amide]",,,,198 nM
338 nM,1530 nM,74 nM,,873 nM,,"CCNC(=O)c1ccc(Nc2cc(Oc3cnc(C#N)cc3C)nc3c2ncn3C)cn1 [Compound 26, 5-[5-(6-Cyano-4-methyl-pyridin-3-yloxy)-3-methyl-3H-imidazo[4,5-b]pyridin-7-ylamino]-pyridine-2-carboxylic acid ethylamide]",,,,
68 nM,409 nM,9.22 nM,495 nM,72.7 nM,,"CCNS(=O)(=O)c1ccc(Nc2cc(Oc3cnc(C#N)cc3C)nc3c2ncn3C)cc1 [Compound 53, 4-[[5-[(6-cyano-4-methyl-3-pyridyl)oxy]-3-methyl-imidazo[4,5-b]pyridin-7-yl]amino]-N-ethyl-benzenesulfonamide]",,,,119 nM
,7460 nM,45.4 nM,,,,"Cc1cc(C#N)ncc1Oc1cc(Nc2ccc(CN)cc2)c2ncn(C)c2n1 [Compound 57, 5-[7-[4-(aminomethyl)anilino]-3-methyl-imidazo[4,5-b]pyridin-5-yl]oxy-4-methyl-pyridine-2-carbonitrile formate salt]",,,,405 nM
97.8 nM,595 nM,7.42 nM,1100 nM,35.5 nM,,"Cc1cc(C#N)ncc1Oc1cc(Nc2ccc(S(C)(=O)=O)cn2)c2ncn(C)c2n1 [Compound 58, 4-methyl-5-[3-methyl-7-[(5-methylsulfonyl-2-pyridyl)amino]imidazo[4,5-b]pyridin-5-yl]oxy-pyridine-2-carbonitrile]",,,,88 nM
,1150 nM,9.72 nM,,,,"Cc1cc(C#N)ncc1Oc1cc(Nc2ccc(S(C)(=O)=O)cc2)c2ncn(C)c2n1 [Compound 60, 4-methyl-5-[3-methyl-7-(4-methylsulfonylanilino)imidazo[4,5-b]pyridin-5-yl]oxy-pyridine-2-carbonitrile]",,,,73 nM
,1650 nM,11.7 nM,,,205 nM,"Cc1cc(C#N)ncc1Nc1cc(Nc2ccc(C(=O)N(C)C)cc2)c2ncn(C)c2n1 [Compound 66, 4-[[5-[(6-cyano-4-methyl-3-pyridyl)amino]-3-methyl-imidazo[4,5-b]pyridin-7-yl]amino]-N,N-dimethyl-benzamide]",,,,138 nM
,199 nM,3.44 nM,,,158 nM,"Cc1cc(C#N)ncc1Oc1cc(Nc2ccc(C(=O)N(C)C)nn2)c2ncn(C)c2n1 [Compound 73, 6-[[5-[(6-cyano-4-methyl-3-pyridyl)oxy]-3-methyl-imidazo[4,5-b]pyridin-7-yl]amino]-N,N-dimethyl-pyridazine-3-carboxamide]",,,,81 nM
